Measurements reported in PMC8525843 (Investigative Ophthalmology & Visual Science, 2021).

What was measured:
[1] = test system: patients; conditions: clinical data; cited from earlier work
[2] = test system: hypertonic saline-induced ocular hypertensive NZW rabbits; assay: IOP-lowering effect in hypertonic saline-induced ocular hypertensive NZW rabbits; format: in vivo, rabbit; conditions: 0.02%; at 1.5 hours; vs saline
[3] = test system: rabbit eyes; conditions: after administration; cited from earlier work

C[C@H]1CNCCCN1S(=O)(=O)c1cccc2cncc(F)c12 [ripasudil, Ripasudil]
time for conjunctival hyperemia to resolve spontaneously [1]: ≤ 4 h

Cc1ccc(C(=O)OCc2ccc([C@@H](CN)C(=O)Nc3ccc4cnccc4c3)cc2)c(C)c1 [AR-13324, netarsudil]
Emax of IOP reduction [2]: 12.1 ± 0.9 mm Hg

O=S(=O)(c1cccc2c(Cl)cccc12)N1CCCNCC1 [ML-9]
IOP of rabbit eyes [3]: decreased in a dose-dependent manner
